Assays:
[1] = target: T1, BChE (Homo sapiens, UniProt P06276); assay: BChE inhibition assay and kinetic study; format: biochemical; conditions: for BChE Inhibition Type: determined by Dixon and Lineweaver–Burk plots; for IC50: mean ± S.D. of triplicate experiments, substrate butyrylthiocholine chloride; for Ki: obtained by Dixon plot
T1 construct: purchased Sigma-Aldrich
Description: (§1) Cholinesterases, trypsin, chymotrypsin, elastase and BACE1, assays were performed according to the previous methods. AChE, BChE, trypsin, chymotrypsin and elastase were assayed according to the manual depicted in the reference using ACh iodide, butyrylthiocholine chloride, N-benzoyl-L-Arg-pNA, N-benzoyl-L-Tyr-pNA and N-succinyl-Ala-Ala-Ala-pNA as substrates, respectively. BACE1 assay was achieved using a Rh-[…]-Quencher as a substrate. […] The inhibitory constant (Ki) was obtained by Dixon plot, and Vmax and Km were defined by Lineweaver–Burk plots. These kinetic parameters were calculated using the SigmaPlot™ (version 12.3, Systat Software, Inc., San Jose, CA, USA).

[2] = target: T2, AChE (Homo sapiens, UniProt P22303); assay: biochemical; conditions: for AChE Inhibition Type: determined by Dixon and Lineweaver–Burk plots; for IC50: mean ± S.D. of triplicate experiments, substrate ACh iodide; for Ki: obtained by Dixon plot
T2 construct: purchased Sigma-Aldrich
Description: as §1

[3] = tested on: T3, BACE1; assay: BACE1 FRET assay (enzyme selectivity); format: biochemical; conditions: mean ± SD of triplicate
T3 construct: purchased Pan Vera
Description: A beta-site APP cleaving enzyme 1 (BACE1) fluorescence resonance energy transfer (FRET) assay kit was purchased from Pan Vera (Madison, WI, USA).
as §1

[4] = tested on: Trypsin; assay: Trypsin inhibition assay (enzyme selectivity); format: biochemical; conditions: mean ± SD of triplicate
Description: as §1

[5] = tested on: T4, Chymotrypsin; assay: Chymotrypsin inhibition assay (enzyme selectivity); format: biochemical; conditions: mean ± SD of triplicate
T4 construct: purchased Sigma-Aldrich
Description: as §1

[6] = tested on: Elastase; assay: Elastase inhibition assay (enzyme selectivity); format: biochemical; conditions: mean ± SD of triplicate
Description: as §1

T1 sequence (P06276 29-602): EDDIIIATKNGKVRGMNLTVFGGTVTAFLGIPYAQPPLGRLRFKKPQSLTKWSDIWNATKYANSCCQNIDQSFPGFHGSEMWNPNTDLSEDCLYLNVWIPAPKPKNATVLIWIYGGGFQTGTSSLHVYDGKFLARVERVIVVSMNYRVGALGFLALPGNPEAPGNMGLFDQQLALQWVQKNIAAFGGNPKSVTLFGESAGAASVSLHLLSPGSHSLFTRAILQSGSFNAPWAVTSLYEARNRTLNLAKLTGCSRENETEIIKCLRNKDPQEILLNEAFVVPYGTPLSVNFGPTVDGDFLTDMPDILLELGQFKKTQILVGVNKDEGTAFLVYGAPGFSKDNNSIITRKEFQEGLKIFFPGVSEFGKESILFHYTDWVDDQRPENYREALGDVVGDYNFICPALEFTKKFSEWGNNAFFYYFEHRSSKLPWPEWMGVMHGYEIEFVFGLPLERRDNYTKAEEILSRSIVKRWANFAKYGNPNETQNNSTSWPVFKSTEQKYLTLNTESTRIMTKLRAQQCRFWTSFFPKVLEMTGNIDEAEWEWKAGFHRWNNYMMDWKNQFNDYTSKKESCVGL
T2 sequence (P22303 32-614): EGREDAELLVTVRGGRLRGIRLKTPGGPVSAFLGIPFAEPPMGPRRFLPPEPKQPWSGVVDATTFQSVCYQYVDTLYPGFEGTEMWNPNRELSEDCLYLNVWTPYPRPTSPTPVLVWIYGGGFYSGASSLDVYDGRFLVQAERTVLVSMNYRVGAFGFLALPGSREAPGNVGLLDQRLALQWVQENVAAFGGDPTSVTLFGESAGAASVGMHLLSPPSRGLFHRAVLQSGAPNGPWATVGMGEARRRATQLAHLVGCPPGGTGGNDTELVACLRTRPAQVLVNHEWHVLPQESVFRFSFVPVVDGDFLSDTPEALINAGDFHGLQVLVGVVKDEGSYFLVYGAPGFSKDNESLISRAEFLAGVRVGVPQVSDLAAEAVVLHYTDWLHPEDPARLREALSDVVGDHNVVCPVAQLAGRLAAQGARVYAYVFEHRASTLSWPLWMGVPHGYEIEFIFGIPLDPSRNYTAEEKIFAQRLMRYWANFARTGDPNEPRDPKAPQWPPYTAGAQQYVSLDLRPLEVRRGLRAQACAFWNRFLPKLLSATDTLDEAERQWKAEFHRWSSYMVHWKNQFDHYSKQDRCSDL

Row | Structure (SMILES) | BChE Inhibition Type [1] | AChE Inhibition Type [2] | IC50 [2] | Ki [2] | IC50 [1] | Ki [1] | Inhibitory activity (%) against BACE1 ([3]; compound 50 µM) | Inhibitory activity (%) against BACE1 ([3]; compound 100 µM) | Inhibitory activity (%) against Trypsin ([4]; compound 50 µM) | Inhibitory activity (%) against Trypsin ([4]; compound 100 µM) | Inhibitory activity (%) against Chymotrypsin ([5]; compound 50 µM) | Inhibitory activity (%) against Chymotrypsin ([5]; compound 100 µM) | Inhibitory activity (%) against Elastase ([6]; compound 50 µM) | Inhibitory activity (%) against Elastase ([6]; compound 100 µM)
1 | COc1ccc2c3c1O[C@H]1C[C@@H](O)C=C[C@@]31CCN(C)C2 [Galantamine, reference compound] | Competitive | – | – | – | – | – | – | – | – | – | – | – | – | –
2 | CC(=O)OC[C@H]1O[C@@H](Oc2cccc3c2C(=O)O[C@@H](c2ccc(OC(C)=O)cc2)C3)[C@H](OC(C)=O)[C@@H](OC(C)=O)[C@@H]1OC(C)=O [HGP, hydrangenol 8-O-glucoside pentaacetate] | Non-competitive | Non-competitive | 22.7 ± 1.63 µM | 36.1 µM | 41 ± 3.03 µM | 44.9 µM | 20.02 ± 0.52% | 25.21 ± 1.60% | 1.26 ± 3.36% | 3.12 ± 1.69% | 7.16 ± 3.38% | 5.15 ± 3.70% | 3.77 ± 1.66% | 1.47 ± 1.31%
3 | O=C1OC(c2ccc(O)cc2)Cc2cc(O)cc(O)c21 (centres unmarked) [TC, thunberginol C] | Non-competitive | Non-competitive | 42 ± 1.06 µM | 45.6 µM | 42.4 ± 3.67 µM | 49.2 µM | 25.81 ± 3.11% | 28.68 ± 1.87% | −0.27 ± 1.51% | 0.07 ± 2.00% | 6.04 ± 2.42% | 8.50 ± 1.40% | 1.89 ± 1.09% | 0.42 ± 0.36%

Reference: article PMC7830924, “Discovery of Natural Inhibitors of Cholinesterases from Hydrangea: In Vitro and In Silico Approaches” (Nutrients, 2021)
